Experimental data as given in patent US20040171086A1, “Selective modulation of TLR-mediated biological activity” (3M Innovative Properties Company, priority 2003, published 2004).

Key:
[1] = molecular target: T1, human TLR8 (Homo sapiens, UniProt Q9NR97); assay: NFκB-luciferase reporter assay in HEK293 cells transfected with human TLR8 (HEK293-TLR8); type: cell-based; conditions: HEK293-TLR8, 10 μM IRM, 16 hours
T1 construct: expressed in transfected cells; host or cells: HEK293 (ATCC CRL-1573), pIRES vector, G-418 selected
T1 sequence (Q9NR97 27-1041): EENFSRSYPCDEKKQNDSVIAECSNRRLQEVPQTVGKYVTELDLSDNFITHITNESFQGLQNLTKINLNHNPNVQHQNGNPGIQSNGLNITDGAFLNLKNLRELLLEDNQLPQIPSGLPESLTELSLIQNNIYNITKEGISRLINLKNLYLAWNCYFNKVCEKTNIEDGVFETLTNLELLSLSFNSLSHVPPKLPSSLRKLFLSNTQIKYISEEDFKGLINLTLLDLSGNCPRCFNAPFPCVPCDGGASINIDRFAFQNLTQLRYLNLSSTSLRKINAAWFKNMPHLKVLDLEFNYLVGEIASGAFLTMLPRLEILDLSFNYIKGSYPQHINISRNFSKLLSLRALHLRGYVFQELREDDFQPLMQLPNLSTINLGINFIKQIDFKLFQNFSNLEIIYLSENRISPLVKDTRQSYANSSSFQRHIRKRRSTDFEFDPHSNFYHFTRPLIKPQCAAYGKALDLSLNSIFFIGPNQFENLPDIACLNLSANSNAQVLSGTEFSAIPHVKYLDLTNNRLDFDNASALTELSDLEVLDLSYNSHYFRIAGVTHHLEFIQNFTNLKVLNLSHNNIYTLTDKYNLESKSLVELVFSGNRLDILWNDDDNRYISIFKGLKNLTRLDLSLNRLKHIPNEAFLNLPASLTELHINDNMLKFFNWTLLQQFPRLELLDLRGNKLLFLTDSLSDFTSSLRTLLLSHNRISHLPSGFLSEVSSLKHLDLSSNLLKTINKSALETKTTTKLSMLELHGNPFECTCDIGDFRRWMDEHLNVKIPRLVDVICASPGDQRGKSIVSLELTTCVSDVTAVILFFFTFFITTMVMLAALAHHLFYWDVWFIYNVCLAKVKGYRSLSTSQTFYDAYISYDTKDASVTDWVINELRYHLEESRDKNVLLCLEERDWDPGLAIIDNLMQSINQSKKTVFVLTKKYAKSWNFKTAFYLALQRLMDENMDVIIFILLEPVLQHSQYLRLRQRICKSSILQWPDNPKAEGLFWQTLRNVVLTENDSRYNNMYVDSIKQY
Experimental: (§1) A compound was identified as increasing cellular activity mediated through a given TLR if it induced at least a two-fold increase in NFκB-induced luciferase signal compared to the control.
(§2) HEK293 medium was prepared from 90% Minimum Essential Medium (MEM) with 2 mM L-glutamine and Earle's Balanced Salt Solution (Invitrogen Corp., Rockville, Md.) adjusted to contain 1.5 g/L sodium bicarbonate, 0.1 mM non-essential amino acids, and 1.0 mM sodium pyruvate; 10% heat-inactivated fetal calf serum. HEK293 cells were cultured by incubating cells in HEK293 medium overnight at 37° C., 8% CO2.
(§3) The cells were co-transfected with (1) pIRES (BD Biosciences Clontech, Palo Alto, Calif.) either (a) unmodified (HEK293-vector), (b) containing an expressible human TLR7 gene (HEK293-TLR7), or (c) containing an expressible human TLR8 gene (HEK293-TLR8), and (2) NFκB-luc reporter (Stratagene, La Jolla, Calif.) in a 10:1 ratio with Fugene 6 transfection reagent (Roche Diagnostics Corp., Indianapolis, Ind.) following the manufacturer's instructions.
(§4) The cells were stimulated with 1 μL of IRM compounds at 1 mM in DMSO (final IRM concentration of 10 μM) or 1 μL DMSO as a control. The plates were then incubated an additional 16 hours at 37° C., 5% CO2. The luciferase signal was read using the LucLite kit (Packard Instrument Co., Meriden, Conn.). Luminescence was measured on an LMAX luminometer (Molecular Devices Corp., Sunnyvale, Calif.).

[2] = molecular target: T2, TLR7 (Homo sapiens, UniProt Q9NYK1); assay: NFκB-luciferase reporter assay in HEK293 cells transfected with human TLR7 (HEK293-TLR7); type: cell-based; set-up: expressed in transfected cells; host or cells: HEK293 (ATCC CRL-1573), pIRES vector, G-418 selected; conditions: HEK293-TLR7, 10 μM IRM, 16 hours
T2 sequence (Q9NYK1 27-1049): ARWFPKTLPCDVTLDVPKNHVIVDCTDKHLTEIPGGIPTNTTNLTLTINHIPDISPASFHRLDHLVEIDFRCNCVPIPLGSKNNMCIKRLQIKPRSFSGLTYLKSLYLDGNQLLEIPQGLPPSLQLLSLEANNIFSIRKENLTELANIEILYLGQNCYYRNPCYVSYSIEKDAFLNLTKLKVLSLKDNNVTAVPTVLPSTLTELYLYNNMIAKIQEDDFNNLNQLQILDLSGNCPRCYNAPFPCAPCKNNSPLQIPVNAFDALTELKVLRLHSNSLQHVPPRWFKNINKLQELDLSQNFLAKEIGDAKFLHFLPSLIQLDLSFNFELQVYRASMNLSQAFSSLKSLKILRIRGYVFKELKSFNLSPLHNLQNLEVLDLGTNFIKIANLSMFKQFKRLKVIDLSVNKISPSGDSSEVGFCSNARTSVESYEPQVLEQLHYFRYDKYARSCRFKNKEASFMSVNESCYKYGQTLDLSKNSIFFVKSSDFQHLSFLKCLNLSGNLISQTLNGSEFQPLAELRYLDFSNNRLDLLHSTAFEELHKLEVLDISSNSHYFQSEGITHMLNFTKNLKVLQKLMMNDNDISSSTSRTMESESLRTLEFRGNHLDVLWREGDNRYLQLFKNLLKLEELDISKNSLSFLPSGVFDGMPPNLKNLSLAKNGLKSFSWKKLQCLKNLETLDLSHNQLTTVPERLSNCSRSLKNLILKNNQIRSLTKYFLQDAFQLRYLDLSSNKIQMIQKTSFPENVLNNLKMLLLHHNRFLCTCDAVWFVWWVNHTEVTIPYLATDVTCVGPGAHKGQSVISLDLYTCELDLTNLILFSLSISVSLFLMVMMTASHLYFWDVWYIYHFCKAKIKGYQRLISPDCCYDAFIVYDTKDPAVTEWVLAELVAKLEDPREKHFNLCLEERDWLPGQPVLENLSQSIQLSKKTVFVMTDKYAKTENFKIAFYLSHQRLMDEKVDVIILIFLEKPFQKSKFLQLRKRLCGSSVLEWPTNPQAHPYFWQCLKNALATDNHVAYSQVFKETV
Experimental: as §1, §2, §3, §4

TLR8: fold increase of NFκB-induced luciferase signal compared to a DMSO control [1] | TLR7: fold increase of NFκB-induced luciferase signal compared to a DMSO control [2] | Structure (SMILES)
0.91 fold increase | 4.16 fold increase | Cc1nc2c(N)nc3ccccc3c2n1CCOCCCc1cccnc1 [IRM2, 2-methyl-1-[2-(3-pyridin-3-ylpropoxy)ethyl]-1H-imidazo[4,5-c]quinolin-4-amine]
1.06 fold increase | 4.98 fold increase | Cc1nc2c(N)nc3ccccc3c2n1CCOCc1ccccc1 [IRM4, 1-[2-(benzyloxy)ethyl]-2-methyl-1H-imidazo[4,5-c]quinolin-4-amine]
0.94 fold increase | 3.38 fold increase | COCCc1nc2c(N)nc3ccccc3c2n1CCCCCCCCNC(=O)Nc1ccccc1 [IRM5, N-{8-[4-amino-2-(2-methoxyethyl)-1H-imidazo[4,5-c]quinolin-1-yl]octyl}-N′-phenylurea]
0.86 fold increase | 6.22 fold increase | COCCc1nc2c(N)nc3ccccc3c2n1CCCNS(=O)(=O)c1ccc(C)cc1 [IRM7, N-{3-[4-amino-2-(2-methoxyethyl)-1H-imidazo[4,5-c]quinolin-1-yl]propyl}-4-methylbenzenesulfonamide]
9.24 fold increase | 0.64 fold increase | CCCCc1nc2c(N)nc3cccnc3c2n1CCNC(=O)C(N)CC(C)C (stereo not drawn) [IRM10, N^1-[2-(4-amino-2-butyl-1H-imidazo[4,5-c][1,5]naphthyridin-1-yl)ethyl]-2-amino-4-methylpentanamide]
10.69 fold increase | 1.44 fold increase | Nc1nc2ccccc2c2c1ncn2CCCCNC(=O)c1ccccc1Oc1ccccc1 [IRM11, N^1-[4-(4-amino-1H-imidazo[4,5-c]quinolin-1-yl)butyl]-2-phenoxybenzamide]
8.84 fold increase | 1.16 fold increase | CCCCc1nc2c(N)nc3ccccc3c2n1CCNS(=O)(=O)CCC [IRM12, N^1-[2-(4-amino-2-butyl-1H-imidazo[4,5-c]quinolin-1-yl)ethyl]-1-propanesulfonamide]
6.25 fold increase | 0.86 fold increase | CCc1nc2c(N)nc3ccccc3c2n1CCOCCNC(=O)Nc1ccccc1 [IRM13, N-{2-[2-(4-amino-2-ethyl-1H-imidazo[4,5-c]quinolin-1-yl)ethoxy]ethyl}-N′-phenylurea]
5.52 fold increase | 0.92 fold increase | CCOCc1nc2c(N)nc3ccccc3c2n1CCNC(=O)Nc1cccc(C#N)c1 [IRM15, N-{2-[4-amino-2-(ethoxymethyl)-1H-imidazo[4,5-c]quinolin-1-yl]ethyl}-N′-(3-cyanophenyl)urea]
2.77 fold increase | 5.06 fold increase | CCCCc1nc2c(N)nc(C)c(C)c2n1CC(C)(C)O [IRM18, 4-amino-2-butyl-α,α,6,7-tetramethyl-1H-imidazo[4,5-c]pyridine-1-ethanol]
6.04 fold increase | 4.22 fold increase | CCc1nc2c(N)nc3ccccc3c2n1CCCCS(=O)(=O)c1cc(Cl)cc(Cl)c1 [IRM20, 1-{4-[(3,5-dichlorophenyl)sulfonyl]butyl}-2-ethyl-1H-imidazo[4,5-c]quinolin-4-amine]

Structure (SMILES) | TLR8: fold increase of NFκB-induced luciferase signal compared to a DMSO control [1] | TLR7: fold increase of NFκB-induced luciferase signal compared to a DMSO control [2]
COCCc1nc2c(N)nc3ccccc3c2n1CC(C)(C)O [IRM17, 4-amino-α,α-dimethyl-2-methoxyethyl-1H-imidazo[4,5-c]quinoline-1-ethanol] | 10.18 fold increase | 2.53 fold increase
